Laboratory results from patent publication US20250002473A1, “QUINOXALINE DERIVED SULFONAMIDES WITH EGFR DEGRADATION ACTIVITIES AND THEIR USES THEREOF” (Accutar Biotechnology Inc., priority 2023, published 2025).
Like-named read-outs stand apart in the source and are kept apart here.

Assays:
Format in all cases: cell-based
[1] = system: HCC827_DTC; experiment: Cell growth inhibition assay (CellTiter-Glo), HCC827_DTC; conditions: 72 h; Table 8; HCC827 expressing human EGFR Del19/T790M/C797S, endogenous EGFR knockout, three days
Description: (§1) HCC827_LTC and HCC827_DTC cell lines were generated by first transducing HCC827 cells (ATCC) with lentiviral particles expressing codon-optimized human EGFR L858R/T790M/C797S (LTC) mutant or Del19/T790M/C797S (DTC) mutant, and then selecting under 5 μg/ml puromycin treatment for a week. The endogenous EGFR alleles were subsequently abolished using the Alt-R™ CRISPR-Cas9 technology (Integrated DNA Technologies). Single clones of HCC827_LTC and HCC827_DTC were selected and validated for endogenous EGFR knockout using Sanger sequencing.
(§2) Cells were seeded in a 96-well plate (Corning 3610) with 90 μL of culture medium per well, and plates were incubated at 37° C. overnight. A 1,000× DMSO stock solution of the desired compound was prepared the following day. A compound dilution plate was prepared by diluting the stock solution 1:100 in the corresponding cell culture medium, 10 μL of the diluted compound solution was added to each 96-well plate well containing the seeded cells. Then, the cells were cultured at 37° C. for three days following compound treatment, 100 μL of CellTiter-Glo reagents (Promega G7573) was added to each well of the 96-well plate. The content of the wells was mixed by shaking continuously for 10 min, and luminescence was measured using Envision (PerkinElmer). The data were analyzed with GraphPad Prism 9 (see FIG. 50).
(§3) Table 6, Table 7, and Table 8 list the cell growth inhibition results, where Gls0 represents the compound concentration to cause 50% cell growth inhibition in comparison with DMSO.

[2] = system: HCC827_LTC; experiment: Cell growth inhibition assay (CellTiter-Glo), HCC827_LTC; conditions: 72 h; Table 8; HCC827 expressing human EGFR L858R/T790M/C797S, endogenous EGFR knockout, three days
Description: as §1, §2, §3

[3] = system: NCI-H2073; experiment: Cell growth inhibition assay (CellTiter-Glo), NCI-H2073; conditions: 72 h; Table 8; NCI-H2073 cells, three days
Description: as §2, with “Then, the cells were cultured at 37° C. for three days following compound treatment, 100 μL of CellTiter-Glo reagents (Promega G7573) was added to each well of the 96-well plate.” left out
as §3

[4] = system: A431; experiment: Cell growth inhibition assay (CellTiter-Glo), A431; conditions: Homo sapiens, A-431, 72 h, A431 cells, three days, read-out: A431 GI50
Outline: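 This growth inhibition assay reports GI50, the compound concentration producing 50% inhibition of cell growth relative to DMSO. Seeded cells (90 μL medium per well, 96-well Corning 3610 plates, overnight at 37° C.) received 10 μL of compound diluted 1:100 from a 1,000× DMSO stock. Luminescence was measured on Envision (PerkinElmer) and analyzed in GraphPad Prism 9.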

[5] = system: HCC827; experiment: Cell growth inhibition assay (CellTiter-Glo), HCC827; conditions: Homo sapiens, 72 h, Table 8, HCC827 cells, three days
Description: as §1, §2, §3

[6] = system: BaF3_DTC (EGFR_Exon19del/T790M/C797S); experiment: EGFR degradation assay (western blot), BaF3_DTC cells; conditions: BaF3_DTC cells (EGFR_Exon19del/T790M/C797S), compounds 24 h, western blot; read-out: BaF3_DTC DC50
Outline: (§4)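 Cells seeded overnight, then exposed to compounds for 24 h; lysates run on western blot, EGFR probed with tubulin loading control and fluorescent secondary detection. DC50 = concentration giving 50% EGFR degradation.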

[7] = system: BaF3_DTC; experiment: Cell growth inhibition assay (CellTiter-Glo), BaF3_DTC; conditions: 72 h; Table 6; BaF3_DTC cells, three days, CellTiter-Glo; read-out: BaF3_DTC GI50
[8] = molecular target: T1, BaF3_ASV (EGFR_A776inASV) (Homo sapiens, UniProt P00533, DUP767-769); experiment: EGFR degradation assay (western blot), BaF3_ASV cells; conditions: BaF3_ASV cells, compounds 24 h, western blot; read-out: BaF3_ASV DC50
T1 construct: expressed in transfected cells; host or cells: Ba/F3 (engineered)
Outline: as §4

[9] = molecular target: T2, A431 (EGFR_WT) (Homo sapiens, UniProt P00533); experiment: EGFR degradation assay (western blot), A431 cells; conditions: compounds 24 h, western blot, read-out: A431 DC50
T2 construct: endogenous in cells; host or cells: A431, NCI-H2073, NCI-H292
Description: A431 (EGFR_WT), NCl-H2073 (EGFR_WT), NCl-H292 (EGFR_WT), BaF3_YVAM (Her2_A775insYVAM), BaF3_SVD (EGFR_D770insSVD), BaF3_ASV (EGFR_A776inASV), or BaF3_DTC (EGFR_Exon19del/T790M/C797S) cells were seeded in a 24-well plate at a density of 4×10^5 cells per well for EGFR WT cells and 8× cells per well for EGFR or Her2 mutant cells, and the plates were incubated overnight. The cells were treated with the desired compounds for 24 h. The culture medium was removed, and 100 μL of RIPA buffer (Beyotime, P0013B) containing 1% Protease Inhibitor Cocktail (Bimake, B14001), 1% Phosphatase Inhibitor Cocktail 2 (Sigma, P5726), and 1% Phosphatase Inhibitor Cocktail 3 (Sigma, P0044) were added to lyse the cells. Then, the cell lysates were transferred to 1.5 mL microcentrifuge tubes and centrifuged at 12,000 rpm and 4° C. for 30 min. The supernatants were transferred into new tubes, and the protein concentration was determined using the BCA protein quantification method. All samples were diluted to the same concentration using RIPA buffer, loading buffer was added, samples were denatured, and 15 μg of protein per lane was loaded onto a SurePAGE 4-20% Bis-Tris gel. Samples were separated via electrophoresis in MOPS running buffer at 180 V for 100 min. Then, proteins were transferred onto PVDF membranes using the MiniBlot™ Electrophoretic Transfer Cell Device (Beyotime, E6050). The membrane was blocked using block buffer (LI-COR 927-60001) to prevent non-specific binding. The membrane was incubated with primary antibodies (1:500 dilution, EGFR-CST4405, 1:2000 dilution, Tubulin-ABclonal #AC021) at 4° C. overnight. The membrane was washed three times with 1× TBST buffer for 15 min each. The membrane was incubated with secondary antibodies IRDye 680RD Goat anti-Rabbit IgG Secondary Antibody (1:2000 dilution, LI-COR 926-68071) and IRDye 800CW Goat anti-Mouse IgG Secondary Antibody (1:2000 dilution, LI-COR 926-32210). Finally, the membrane was washed again with 1× TBST buffer 3 times. Fluorescence was detected using the Odyssey CLx Imaging System, and the data were analyzed with Empiria Studio Software and GraphPad Prism 9. Table 4 and Table 5 list the degradation results, where the degradation potency is represented by DC50, the concentration of compounds to cause the degradation of 50% of the corresponding proteins. FIGS. 45-49 show western blots illustrating the EGFR degradative activity of exemplary Compound of the present disclosure and a comparator Compound A in different cell lines 24 h after administration. The Compound referred herein as Compound A is disclosed in WO 2022/171123 A1 (see, compound 133, page 46; published Aug. 18, 2022). WO 2022/171123 A1 discloses phosphine oxide derived molecules with EGFR degradation activity.

[10] = system: BaF3_ASV; experiment: Cell growth inhibition assay (CellTiter-Glo), BaF3_ASV; conditions: 72 h; Table 6; BaF3_ASV cells, three days, CellTiter-Glo; read-out: BaF3_ASV GI50

T1 sequence (P00533 with tags, fused parts or gaps DUP767-769): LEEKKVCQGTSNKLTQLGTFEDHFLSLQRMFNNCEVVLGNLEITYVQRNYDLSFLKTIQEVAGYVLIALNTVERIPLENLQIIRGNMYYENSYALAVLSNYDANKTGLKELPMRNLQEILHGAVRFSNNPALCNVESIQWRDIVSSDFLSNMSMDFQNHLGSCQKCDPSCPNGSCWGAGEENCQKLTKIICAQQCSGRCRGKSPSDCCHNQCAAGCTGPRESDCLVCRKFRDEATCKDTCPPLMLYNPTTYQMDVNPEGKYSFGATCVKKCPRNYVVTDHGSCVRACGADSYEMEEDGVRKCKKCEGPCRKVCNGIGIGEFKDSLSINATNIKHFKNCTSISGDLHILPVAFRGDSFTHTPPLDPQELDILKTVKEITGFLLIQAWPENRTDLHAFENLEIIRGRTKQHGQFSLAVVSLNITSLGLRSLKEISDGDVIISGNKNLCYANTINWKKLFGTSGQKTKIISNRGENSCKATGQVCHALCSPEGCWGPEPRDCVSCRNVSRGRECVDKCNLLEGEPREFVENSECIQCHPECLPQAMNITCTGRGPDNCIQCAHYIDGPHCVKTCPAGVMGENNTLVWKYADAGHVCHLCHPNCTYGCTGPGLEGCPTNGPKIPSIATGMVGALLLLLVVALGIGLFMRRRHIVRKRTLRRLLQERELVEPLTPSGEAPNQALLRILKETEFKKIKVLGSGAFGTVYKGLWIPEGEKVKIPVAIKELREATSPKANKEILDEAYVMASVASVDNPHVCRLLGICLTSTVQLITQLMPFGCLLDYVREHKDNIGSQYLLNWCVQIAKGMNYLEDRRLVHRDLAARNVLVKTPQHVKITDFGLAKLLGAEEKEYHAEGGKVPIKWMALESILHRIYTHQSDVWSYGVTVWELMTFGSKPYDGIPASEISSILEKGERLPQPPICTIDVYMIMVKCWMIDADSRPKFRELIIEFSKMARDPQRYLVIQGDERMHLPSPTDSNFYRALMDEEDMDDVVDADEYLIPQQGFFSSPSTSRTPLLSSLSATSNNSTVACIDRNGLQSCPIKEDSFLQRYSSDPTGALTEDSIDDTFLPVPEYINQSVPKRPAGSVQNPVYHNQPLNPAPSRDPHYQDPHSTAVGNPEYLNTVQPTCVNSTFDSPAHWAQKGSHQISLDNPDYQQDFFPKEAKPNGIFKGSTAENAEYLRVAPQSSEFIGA
T2 sequence (P00533 25-1210): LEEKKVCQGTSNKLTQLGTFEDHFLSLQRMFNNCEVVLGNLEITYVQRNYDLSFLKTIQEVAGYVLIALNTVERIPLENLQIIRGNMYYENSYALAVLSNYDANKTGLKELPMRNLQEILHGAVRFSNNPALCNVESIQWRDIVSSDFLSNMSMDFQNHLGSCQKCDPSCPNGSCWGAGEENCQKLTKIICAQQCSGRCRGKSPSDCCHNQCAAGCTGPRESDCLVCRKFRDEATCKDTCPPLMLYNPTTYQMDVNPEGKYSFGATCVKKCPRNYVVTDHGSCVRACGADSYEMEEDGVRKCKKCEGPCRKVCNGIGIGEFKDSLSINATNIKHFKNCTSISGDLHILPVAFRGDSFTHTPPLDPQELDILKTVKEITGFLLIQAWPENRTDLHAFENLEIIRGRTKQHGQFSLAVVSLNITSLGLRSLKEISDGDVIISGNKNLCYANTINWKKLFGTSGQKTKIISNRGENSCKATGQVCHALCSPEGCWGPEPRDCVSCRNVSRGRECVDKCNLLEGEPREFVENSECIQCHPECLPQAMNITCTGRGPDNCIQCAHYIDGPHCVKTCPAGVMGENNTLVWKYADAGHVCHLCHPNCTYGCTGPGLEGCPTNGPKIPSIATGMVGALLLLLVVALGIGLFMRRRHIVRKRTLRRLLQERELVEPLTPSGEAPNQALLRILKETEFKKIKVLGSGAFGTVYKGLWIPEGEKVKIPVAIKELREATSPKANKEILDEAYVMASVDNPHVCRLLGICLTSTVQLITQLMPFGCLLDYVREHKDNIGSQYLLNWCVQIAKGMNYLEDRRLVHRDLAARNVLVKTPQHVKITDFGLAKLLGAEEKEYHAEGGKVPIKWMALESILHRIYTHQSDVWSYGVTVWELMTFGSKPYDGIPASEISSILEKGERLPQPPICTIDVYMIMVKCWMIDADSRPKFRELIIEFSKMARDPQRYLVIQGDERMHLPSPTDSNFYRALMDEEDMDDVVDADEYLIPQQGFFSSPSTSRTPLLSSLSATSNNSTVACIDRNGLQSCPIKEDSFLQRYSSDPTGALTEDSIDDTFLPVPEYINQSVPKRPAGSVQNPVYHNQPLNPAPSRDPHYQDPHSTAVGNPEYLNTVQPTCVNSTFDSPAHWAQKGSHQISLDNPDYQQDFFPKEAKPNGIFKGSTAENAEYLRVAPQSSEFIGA

Structure (SMILES)	GI50 [1]	GI50 [2]	GI50 [3]	GI50 ([4]; Table 8)	GI50 [5]	DC50 [6]	GI50 [7]	GI50 ([4]; Table 6, CellTiter-Glo)	DC50 [8]	DC50 [9]	GI50 [10]
COc1cc(N2CCC(N3CCN(CCc4ccc(NC5CCC(=O)NC5=O)cc4)CC3)CC2)c(-c2cnn(C)c2)cc1Nc1ncc(Br)c(Nc2ccc3nccnc3c2NS(C)(=O)=O)n1 (stereo not shown) [Compound 78, N-(6-((5-bromo-2-((4-(4-(4-(4-((2,6-dioxopiperidin-3-yl)amino)phenethyl)piperazin-1-yl)piperidin-1-yl)-2-methoxy-5-(1-methyl-1H-pyrazol-4-yl)phenyl)amino)pyrimidin-4-yl)amino)quinoxalin-5-yl)methanesulfonamide]	1.96 nM	1.81 nM	403 nM	436 nM	1 nM						
COc1cc(N2CCC(N3CCN(CCc4cc(F)c(C5CCC(=O)NC5=O)c(F)c4)CC3)CC2)c(-c2cnn(C)c2)cc1Nc1ncc(Br)c(Nc2ccc3nccnc3c2NS(C)(=O)=O)n1 (stereo not shown) [Compound 70, N-(6-((5-bromo-2-((4-(4-(4-(4-(2,6-dioxopiperidin-3-yl)-3,5-difluorophenethyl)piperazin-1-yl)piperidin-1-yl)-2-methoxy-5-(1-methyl-1H-pyrazol-4-yl)phenyl)amino)pyrimidin-4-yl)amino)quinoxalin-5-yl)methanesulfonamide]	1.53 nM	0.45 nM	134 nM	160 nM	0.96 nM						
CCc1cc(Nc2ncc(Br)c(Nc3ccc4nccnc4c3NS(C)(=O)=O)n2)c(OC)cc1N1CCC(N2CCN(CCc3cccc4c3C(=O)N(C3CCC(=O)NC3=O)C4)CC2)CC1 (stereo not shown) [Compound 8, N-(6-((5-bromo-2-((4-(4-(4-(2-(2-(2,6-dioxopiperidin-3-yl)-3-oxoisoindolin-4-yl)ethyl)piperazin-1-yl)piperidin-1-yl)-5-ethyl-2-methoxyphenyl)amino)pyrimidin-4-yl)amino)quinoxalin-5-yl)methanesulfonamide]						23.3 nM	24.7 nM	> 1000 nM	> 1000 nM	> 1000 nM	858 nM
CCc1cc(Nc2ncc(Br)c(Nc3ccc4nccnc4c3NS(C)(=O)=O)n2)c(OC)cc1N1CCC(N2CCN(C3CCN(c4ccc5c(c4)CN(C4CCC(=O)NC4=O)C5=O)CC3)CC2)CC1 (stereo not shown) [Compound 49, N-(6-((5-bromo-2-((4-(4-(4-(1-(2-(2,6-dioxopiperidin-3-yl)-1-oxoisoindolin-5-yl)piperidin-4-yl)piperazin-1-yl)piperidin-1-yl)-5-ethyl-2-methoxyphenyl)amino)pyrimidin-4-yl)amino)quinoxalin-5-yl)methanesulfonamide]						2.36 nM	4.43 nM	≥ 1000 nM	19.7 nM	> 1000 nM	32.7 nM

Second part, led by results:

GI50 [1]	GI50 [2]	GI50 [3]	GI50 ([4]; Table 8)	GI50 [5]	Structure (SMILES)	DC50 [6]	GI50 [7]	GI50 ([4]; Table 6, CellTiter-Glo)	DC50 [8]	DC50 [9]	GI50 [10]
30.8 nM	9.38 nM	> 3000 nM	> 3000 nM	2.82 nM	COc1cc(N2CCC(N3CCN(c4ccc5c(c4)C(=O)N(C4CCC(=O)NC4=O)C5=O)CC3)CC2)c(-c2cnn(C)c2)cc1Nc1ncc(Br)c(Nc2ccc3nccnc3c2NS(C)(=O)=O)n1 (stereo not shown) [Compound 82, N-(6-((5-bromo-2-((4-(4-(4-(2-(2,6-dioxopiperidin-3-yl)-1,3-dioxoisoindolin-5-yl)piperazin-1-yl)piperidin-1-yl)-2-methoxy-5-(1-methyl-1H-pyrazol-4-yl)phenyl)amino)pyrimidin-4-yl)amino)quinoxalin-5-yl)methanesulfonamide]						
10.7 nM	3.06 nM	> 3000 nM	> 3000 nM	1.18 nM	COc1cc(N2CCN(CC3CCN(c4ccc5c(c4)C(=O)N(C4CCC(=O)NC4=O)C5=O)CC3)CC2)c(-c2cnn(C)c2)cc1Nc1ncc(Br)c(Nc2ccc3nccnc3c2NS(C)(=O)=O)n1 (stereo not shown) [Compound 84, N-(6-((5-bromo-2-((4-(4-((1-(2-(2,6-dioxopiperidin-3-yl)-1,3-dioxoisoindolin-5-yl)piperidin-4-yl)methyl)piperazin-1-yl)-2-methoxy-5-(1-methyl-1H-pyrazol-4-yl)phenyl)amino)pyrimidin-4-yl)amino)quinoxalin-5-yl)methanesulfonamide]						
7.7 nM	3.57 nM	> 3000 nM	> 3000 nM	2.72 nM	COc1cc(N2CCC(N3CCN(CC4CCN(c5ccc6c(c5)C(=O)N(C5CCC(=O)NC5=O)C6=O)CC4)CC3)CC2)c(-c2cnn(C)c2)cc1Nc1ncc(Br)c(Nc2ccc3nccnc3c2NS(C)(=O)=O)n1 (stereo not shown) [Compound 85, N-(6-((5-bromo-2-((4-(4-(4-((1-(2-(2,6-dioxopiperidin-3-yl)-1,3-dioxoisoindolin-5-yl)piperidin-4-yl)methyl)piperazin-1-yl)piperidin-1-yl)-2-methoxy-5-(1-methyl-1H-pyrazol-4-yl)phenyl)amino)pyrimidin-4-yl)amino)quinoxalin-5-yl)methanesulfonamide]						
